Tests used:
Format in all cases: biochemical
cathepsin B = target: T1, cathepsin B (Homo sapiens, UniProt P07858); assay: Cathepsin B enzyme inhibition in vitro (kinetic fluorescence assay); conditions: cathepsin B isolated from human liver vs calpain I
T1 construct: cathepsin B—isolated from human liver (Calbiochem #219362); purchased Calbiochem 219362; host or cells: human liver (tissue-derived)
Summary of the method: (§1)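 Kinetic fluorescence (ex 390/em 460 nm) at room temperature in 50 mM MES, 2 mM EDTA, 0.05% Brij 35, 2.5 mM L-cysteine, pH 6.0. Cathepsin B (liver, 0.25 nM) with 100 μM Z-Phe-Arg-AMC; cathepsin L (liver, 1 nM) with 2 μM Z-Phe-Arg-AMC; recombinant E. coli cathepsin S (0.5 nM) with 20 μM Z-Val-Val-Arg-AMC. Ki via Cheng-Prusoff.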

cathepsin K = target: T2, cathepsin K (Homo sapiens, UniProt P43235); assay: Cathepsin K enzyme inhibition in vitro (kinetic fluorescence assay); conditions: cathepsin K activated from recombinant human procathepsin K vs calpain I
T2 construct: purchased Calbiochem 342001; host or cells: E. coli
T2 sequence (P43235 115-329): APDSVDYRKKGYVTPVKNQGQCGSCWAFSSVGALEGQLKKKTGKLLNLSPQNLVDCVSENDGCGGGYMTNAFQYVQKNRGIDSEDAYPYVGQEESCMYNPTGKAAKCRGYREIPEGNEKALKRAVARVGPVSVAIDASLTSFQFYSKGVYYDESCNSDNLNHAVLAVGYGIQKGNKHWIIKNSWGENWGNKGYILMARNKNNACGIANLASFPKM

cathepsin L = target: T3, cathepsin L (Homo sapiens, UniProt P07711); assay: Cathepsin L enzyme inhibition in vitro (kinetic fluorescence assay); conditions: cathepsin L isolated from human liver vs calpain I
T3 construct: cathepsin L—isolated from human liver (Calbiochem #219402); purchased Calbiochem 219402; host or cells: human liver (tissue-derived)
Summary of the method: as §1

cathepsin S = target: T4, cathepsin S (Homo sapiens, UniProt P25774); assay: Cathepsin S enzyme inhibition in vitro (kinetic fluorescence assay); conditions: recombinant human cathepsin S vs calpain I
T4 construct: purchased Calbiochem 219343; host or cells: E. coli
Summary of the method: as §1

T3 sequence (P07711 114-333): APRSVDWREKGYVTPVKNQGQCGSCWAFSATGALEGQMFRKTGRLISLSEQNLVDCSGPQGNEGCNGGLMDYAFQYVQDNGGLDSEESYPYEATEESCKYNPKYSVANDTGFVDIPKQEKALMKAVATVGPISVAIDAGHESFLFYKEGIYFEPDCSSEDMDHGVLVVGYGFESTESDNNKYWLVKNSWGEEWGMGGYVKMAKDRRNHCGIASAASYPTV
T4 sequence (P25774 115-331): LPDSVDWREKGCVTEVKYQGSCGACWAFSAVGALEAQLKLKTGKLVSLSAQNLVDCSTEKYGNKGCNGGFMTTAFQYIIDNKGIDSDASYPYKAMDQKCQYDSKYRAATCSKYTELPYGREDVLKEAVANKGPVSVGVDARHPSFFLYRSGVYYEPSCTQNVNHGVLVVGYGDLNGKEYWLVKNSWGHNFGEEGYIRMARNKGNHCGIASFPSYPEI

SMILES	Sel cat. B: Ki(cathepsin B)/Ki(calpain) ratio (cathepsin B)	Sel cat. K: Ki(cathepsin K)/Ki(calpain) ratio (cathepsin K)	Sel cat. L: Ki(cathepsin L)/Ki(calpain) ratio (cathepsin L)	Sel cat. S: Ki(cathepsin S)/Ki(calpain) ratio (cathepsin S)
COc1ccc(CC(NC(=O)c2cccnc2-n2ccc(-c3cccc4ccccc34)n2)C(=O)C(N)=O)cc1 (centres unmarked) [Example 135, N-(3-Amino-1-{[4-(methyloxy)phenyl]methyl}-2,3-dioxopropyl)-2-(3-naphthalen-1-yl-1H-pyrazol-1-yl)pyridine-3-carboxamide]	++ (++ means a Ki(cathepsin B)/Ki(calpain) ratio of ≧30)	++ (++ means a Ki(cathepsin K)/Ki(calpain) ratio of ≧30)	++ (++ means a Ki(cathepsin L)/Ki(calpain) ratio of ≧50)	++ (++ means a Ki(cathepsin S)/Ki(calpain) ratio of ≧100)
NC(=O)C(=O)C(Cc1ccccc1)NC(=O)c1cccnc1-n1ccc(-c2ccc(N3CCOCC3)cc2Cl)n1 (centres unmarked) [Example 99, N-[3-Amino-2,3-dioxo-1-(phenylmethyl)propyl]-2-[3-(2-chloro-4-morpholin-4-ylphenyl)-1H-pyrazol-1-yl]pyridine-3-carboxamide]	++ (++ means a Ki(cathepsin B)/Ki(calpain) ratio of ≧30)	++ (++ means a Ki(cathepsin K)/Ki(calpain) ratio of ≧30)	++ (++ means a Ki(cathepsin L)/Ki(calpain) ratio of ≧50)	++ (++ means a Ki(cathepsin S)/Ki(calpain) ratio of ≧100)
NC(=O)C(=O)C(Cc1ccccc1)NC(=O)c1cccnc1-n1cc2c(n1)-c1ccccc1OC2 (centres unmarked) [Example 100, N-[3-Amino-2,3-dioxo-1-(phenylmethyl)propyl]-2-chromeno[4,3-c]pyrazol-2(4H)-ylpyridine-3-carboxamide]	+ (+ means 10≦Ki(cathepsin B)/Ki(calpain)<30)	++ (++ means a Ki(cathepsin K)/Ki(calpain) ratio of ≧30)	++ (++ means a Ki(cathepsin L)/Ki(calpain) ratio of ≧50)	++ (++ means a Ki(cathepsin S)/Ki(calpain) ratio of ≧100)
NC(=O)C(=O)C(Cc1ccccc1)NC(=O)c1cccnc1-n1ccc(-c2cccc3c2OC(F)(F)O3)n1 (centres unmarked) [Example 119, N-[3-Amino-2,3-dioxo-1-(phenylmethyl)propyl]-2-[3-(2,2-difluoro-1,3-benzodioxol-4-yl)-1H-pyrazol-1-yl]pyridine-3-carboxamide]	++ (++ means a Ki(cathepsin B)/Ki(calpain) ratio of ≧30)	++ (++ means a Ki(cathepsin K)/Ki(calpain) ratio of ≧30)	++ (++ means a Ki(cathepsin L)/Ki(calpain) ratio of ≧50)	++ (++ means a Ki(cathepsin S)/Ki(calpain) ratio of ≧100)
NC(=O)C(=O)C(Cc1ccccc1)NC(=O)c1cccnc1-n1ccc(-c2c(F)cccc2F)n1 (centres unmarked) [Example 85, N-[3-Amino-2,3-dioxo-1-(phenylmethyl)propyl]-2-[3-(2,6-difluorophenyl)-1H-pyrazol-1-yl]pyridine-3-carboxamide]	+ (+ means 10≦Ki(cathepsin B)/Ki(calpain)<30)	++ (++ means a Ki(cathepsin K)/Ki(calpain) ratio of ≧30)	++ (++ means a Ki(cathepsin L)/Ki(calpain) ratio of ≧50)	++ (++ means a Ki(cathepsin S)/Ki(calpain) ratio of ≧100)
